Like-named read-outs stand apart in the source and are kept apart here.
Columns and labels:
IMR-32 = test: IncuCyte live-cell imaging, antiproliferative effect; format: cell-based; settings: Homo sapiens, IMR-32, 72 h, read-out: Cell GI50 72h, IMR-32
Outline: (§1)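 Cells seeded in 384-well plates (neuroblastoma 1200–5000, HEK293T 600 cells/well), adhered overnight, then compound-treated in duplicate or triplicate; confluency tracked by IncuCyte live-cell imaging. Normalized confluence averaged from 3 experiments; absolute GI50 interpolated from four-parameter variable-slope curves.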

HEK293T = test: as above; format: cell-based; settings: Homo sapiens, HEK-293T
Outline: as §1

ESCO2 = test: LC-MS/MS proteome profiling; format: cell-based, Homo sapiens; settings: SK5527 vs DMSO (24h)
Method: (§2) Analysis of the mass spectrometry data was performed in DiaNN (version 1.9). Precursor false discovery rate was set at 1%. Spectra were searched against the Homo sapiens protein sequences in the Uniprot database (database release version of 2024_01), containing 20,597 sequences (www.uniprot.org) and the imbedded protein contaminant list. Enzyme specificity was set as C-terminal to arginine and lysine, also allowing cleavage at proline bonds with a maximum of 2 missed cleavages. Variable modifications were set to oxidation of methionine residues and acetylation of protein N-termini while fixed modification was set to carbamidomethylation of cystein residues. Matching between runs was enabled. Mainly default settings were used, except for the addition of a 400-900 m/z precursor mass range filter and MS1 and MS2 mass tolerance was set to 10 and 20 ppm respectively.
(§3) Further data analysis of the results was performed with an in-house script in the R programming language.
(§4) Protein expression matrices were prepared as follows: the DIA-NN main report output table was filtered at a precursor and protein library q-value cut-off of 1 % and only proteins identified by at least one proteotypic peptide were retained. After pivoting into a wide format, iBAQ intensity columns were then added to the matrix using the DIAgui’s R package get_IBAQ function. PG MaxLFQ intensities were log2 transformed and replicate samples were grouped. Proteins with less than 3 valid values in at least one group were removed and missing values were imputed from a normal distribution centered around the detection limit (package DEP) leading to a list of 7,759 quantified proteins in the experiment, used for further data analysis. […]
(§5) Statistical significance for differential regulation was set to a false discovery rate (FDR) of < 0.05 and |log2FC| = 2.

ETV3 = test: LC-MS/MS proteome profiling; format: cell-based, Homo sapiens; settings: SK5527 vs DMSO (24h)
Method: as §2, §3, §4, §5

Row | SMILES | GI50 (IMR-32) [nM] | GI50 (HEK293T; 72 h, read-out: Cell GI50 72h) [nM] | GI50 (HEK293T; 72h, read-out: GI50) [nM] | logFC ESCO2 (ESCO2) | logFC ETV3 (ETV3)
1 | O=C1CCC(N2C(=O)c3cccc(OCCOCCOCCOCCNC(=O)[C@]4(Cc5cccc(Nc6nccs6)n5)CC[C@@H](Oc5cccc(Cl)c5F)CC4)c3C2=O)C(=O)N1 (some centres unmarked) [SK2188, reference compound] | 10 | – | – | – | –
2 | Cc1cc(Nc2ccc(F)c(CC3(C(=O)N4CCC(F)(CN5CCN(c6ccc(N7CCC(=O)NC7=O)cn6)CC5)CC4)CCN(Cc4cccc(Cl)c4F)CC3)n2)n[nH]1 [SK5527] | – | 408 | ~500 | -2.1 | -2.36
